For the assay, the target named is T1, G-protein coupled receptor 30 (GPR30) (Rattus norvegicus, UniProt O08878).
T1 sequence (O08878 1-375): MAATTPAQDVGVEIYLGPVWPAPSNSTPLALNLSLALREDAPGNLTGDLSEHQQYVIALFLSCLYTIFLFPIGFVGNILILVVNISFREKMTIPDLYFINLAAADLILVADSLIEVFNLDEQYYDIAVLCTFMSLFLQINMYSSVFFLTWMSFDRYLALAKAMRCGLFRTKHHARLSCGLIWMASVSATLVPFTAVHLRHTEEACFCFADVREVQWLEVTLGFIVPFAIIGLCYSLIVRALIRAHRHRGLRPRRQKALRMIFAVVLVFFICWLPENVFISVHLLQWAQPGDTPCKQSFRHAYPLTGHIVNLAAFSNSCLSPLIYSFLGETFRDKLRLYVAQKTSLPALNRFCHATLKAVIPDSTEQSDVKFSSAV
In words: [3H]2ME2 saturation radioligand binding on WB cell membranes.

What is called Kd is a measure of binding affinity in units of concentration. Read a low Kd as a tighter complex. `COc1cc2c(cc1O)CC[C@@H]1[C@@H]2CC[C@]2(C)[C@@H](O)CC[C@@H]12` [2ME2, 2-methoxyestradiol]: the Kd is approximately 10.1 nM.

These data come from article PMC3946276 (European journal of pharmacology, 2013).
